Data as given in patent US20060247187A1, “Attenuation of disorders by aminoglycosides” (priority 2005, published 2006).

Tests used:
Male Sprague-Dawley rats [1] = conditions: serum, after treatment
Description: Consequently, serum ACE activity was estimated in animals before and after administration of gentamicin using the synthetic ACE-specific substrate, hippuryl-histidyl-leucine (Shihabi and Scaro, 1981). The released product (His-Leu) was fluorimetrically measured after reaction with ophthaldehyde in time-fixed assays. Briefly, 20 μl of 10 times diluted plasma was mixed with 20 μl Hip-His-Leu (final conc.=1 mM) made up to 50 μl with 10 μL of 100 mM Tris-HCl, 300 mM NaCl, pH 8.3. The samples were then mixed and incubated in 37° C. water bath for 30 minutes. To detect the generated His-Leu, 120 μl of 0.3 N NaOH and 10 μl o-phthaldehyde were then added and the samples briefly vortexed and incubated at room temperature for 10 minutes. To terminate the derivitisation reaction, 20 μl of 3N HCl was added and the samples centrifuged for 5 minutes at 15, 000 rpm to remove insoluble residue. The resulting supernatant was transferred to a black 96 well plate and fluorescence read at excitation=355 nm, emission=485 nm in a fmax fluorescence detector (Molecular Biosystems, USA). Results were corrected for blank fluorescence detected in the absence of Hip-His-Leu. Results are expressed as nmol of His-Leu generated per minute of reaction time per ml of plasma (nmol/min/ml).

Male Sprague-Dawley rats [2] = test: Morphological examination of the kidney (PAS, propidium iodide apoptosis, GPX-3 in situ hybridization); format: in vivo, rat
Description: Paraffin embedded sections were stained with periodic acid-Schiff (PAS) and examined by light microscopy to determine the extent of gentamicin toxicity (Kopple et al., 2002). In addition, tubular apoptosis was assessed by staining for DNA fragmentation using propidium iodide. Briefly, sections (3 μm) from the same paraffin blocks used for PAS staining were de-paraffinised with xylene and rehydrated, soaked with PBS pH 7.4 and incubated for 10 minutes with propidium iodide 10 μg/ml and RNAse A 100 μg/ml at 37° C. Sections were subsequently washed extensively with PBS, rinsed with distilled water and mounted with an aqueous media (AFT, Behring Diagnostics, Somerville, N.J.). On a fluorescence microscope, renal tissue was identified on bright field and then, using a rhodamine filter set, the normal and apoptotic tubular nuclei were counted. Twenty cortical windows were assessed in each animal. The results were expressed as a mean number of fragmented and condensed nuclei (apoptotic cells) per window. As a marker of proximal tubular injury, renal gene expression of extracellular glutathione peroxidase, GPX-3 (Yazar et al., 2003) was also assessed in paraffin fixed sections by in situ hybridization

Male Sprague-Dawley rats [3] = test: Oxidation, lipoxidation and glycation products (AOPP, MDA-linked fluorescence, AGE fluorescence, LMW-AGEs, CML staining)
Description: Serum and tissue advanced oxidation products (AOPP) were measured by spectrophotometric methods (Martin-Gallan et al., 2003). This assay largely detects the presence of protein dityrosine modifications (Witko-Sarsat et al., 2003). Briefly, 200 μl of homogenised renal tissue or serum was diluted 1:3 in PBS, 100 μL of 1.16 mol/L potassium iodide (KI, Sigma) were then added to each tube, followed two minutes later by 200 μL of concentrated acetic acid. […] Concentrations of AOPP were expressed as arbitrary units calibrated to a chloramine T standard.
Tissue-linked glycoxidation products were measured, based on tissue fluorescence using a flow injection assay (Wrobel et al., 1998). Briefly, renal tissue was enymatically hydrolysed using proteinase K. The solution was then centrifuged to remove sediment and the aqueous phase injected directly into a water column flowing through a fluorescence detector (Waters 470, Waters USA) and UV detector (Hewlett-Packard, USA) in series. Pentosidine-linked fluorescence was measured at excitation 325 nm with an emission at 385 nm (Meng et al., 2000). The level of lipid peroxidation was estimated by determining the malondialdehyde (MDA)-linked fluorescence (390 nm/emission 460 nm) (Meng et al., 1998). The values of fluorescence were corrected against those of the blanks containing the same concentration of proteinase K and adjusted for the peptide content using the absorbance at 280 nm. The data were expressed in arbitrary units, with […] being given the reference value of 1. Finally, paraffin sections were stained for CML-AGEs

[4] = prospective studies, gentamicin for over 7 days; cited from earlier work
Male Sprague-Dawley rats [5] = test: Urinary nitrate/nitrite (NOx) excretion by Griess reaction; format: in vivo, rat; conditions: per mg creatinine, after treatment
Description: As a marker of renal NO generation, daily excretion of urinary nitrate/nitrite (NOx) was measured using the Griess reaction (Komers et al., 1994; Miranda et al., 2001). Briefly, 0.5 ml of urine was centrifuged at 10,000 g for 15 minutes, the supernatant removed and diluted fivefold using deionised water. From each sample 50 μl was dispensed into a 96-well plate followed by 50 μl of freshly prepared vanadium chloride solution (0.8 mg/ml in 1M HCl) and immediately followed by 50 μl of Griess reagent (2% sulphanilamide in 1.47M hydrochloric acid) and 0.1% N-(1-aphthyl)ethylenediamine dihydrochloride in deionised water. […] Each sample was assayed in triplicate. Urinary NOx excretion was expressed as μmol/mg creatinine.

[6] = system: Escherichia coli (ATCC 25922); test: Bactericidal studies: MIC of gentamicin in presence and absence of aminoguanidine; format: cell-based
Description: A standardised E coli (ATCC 25922) was then inoculated into the broth and the lowest concentration of gentamicin to inhibit the growth of the bacterium determined (MIC). Results are expressed in milligrams of gentamicin per litre. Studies were performed in duplicate on two separate occasions by a blinded operator. A clinically significant change was defined as an increase in the MIC by two or more doubling dilutions.

Male Sprague-Dawley rats [7] = test: Gentamicin nephrotoxicity model: serum and urine biochemistry, renal function, kidney weight after 8 days of treatment
Description: Group 1 (Gentamicin): These animals received timed daily subcutaneous injections of gentamicin (50 mg/kg/d) in divided doses, delivered during the resting period, for 8 consecutive days.
Group 3 (Sham): These animals received twice daily subcutaneous injections of equivalent amount of vehicle (0.9% NaCl) according to the same timed protocol for 8 consecutive days.
Kidneys were harvested and blood collections were performed. […] One kidney was immediately removed for histological examination.
(Roche Diagnostics, Basel, Switzerland). […] Gentamicin standards were prepared in normal rat sera.
Serum and urine creatinine were measured by HPLC.

[8] = Serum and renal cortical gentamicin levels; format: in vivo, rat
Description: (Roche Diagnostics, Basel, Switzerland). […] Gentamicin standards were prepared in normal rat sera. […] To measure the gentamicin concentrations in the renal cortex, the kidney was processed and analysed. The upper pole of the vertically divided right kidney was removed and snap-frozen at minus 80° C. until use. […] After centrifugation, a 100 μl aliquot of the supernatant was used immediately for gentamicin determination by HPLC. […] Fluorescence detection was set at excitation 340 nm, emission 418 nm. The […] gentamicin peak was used to quantify the total gentamicin content. Calibration curves of the components were prepared in a drugfree supernatant of the renal homogenates and were linear over the concentration range 50-500 μg/ml. […] Renal cortical gentamicin concentrations were expressed per milligram of renal cortical protein.

[9] = cited from earlier work
Male Sprague-Dawley rats [10] = test: Serum and urine parameters after aminoguanidine pre-treatment but before gentamicin therapy; conditions: p<0.05
Description: Male Sprague-Dawley rats were randomly assigned to one of three groups:
Group 2 (Gentamicin+aminoguanidine): rats received aminoguanidine 4 g/L in their drinking water for 2 weeks, prior to gentamicin dosing as described above.
Prior to gentamicin dosing and on day 7 of the study, animals were placed individually in metabolic cages and 24 h urine collected and food intake recorded. Blood was collected into heparinised tubes, after being obtained from the tail of each rat, at baseline and on days 2 and 5. The blood samples were always obtained before the daily injections were given, as well as being taken 24 hours following the last injection and at the time of sacrifice. […]
Standard physiological and biochemical parameters including body weight and food and water intake, were measured before and after gentamicin dosing regimens. […] Serum gentamicin was measured in serum by a polarisation fluorescence immunoassay in a TDx analyser (Abbott Diagnostics, Abbott Park, Ill., USA). […] To quantify enzymuria, urinary excretion of alanine transaminase (ALT), aspartate transferase (AST), alkaline phosphatase (AP) and lactate dehydrogenase (LDH) were measured using a Hitachi 747 Automatic Analyser, as above. […] Therefore the urinary excretion of the electrolytes were measured in this experimental protocol and expressed as the fractional excretion (FE), which is calculated as: FEx(%)=(Ux×PCr)/(Px×UCr) […]

[11] = following 8-days of treatment, Mean ± SEM
[12] = serum, following 8-days of treatment, Mean ± SEM

## CNC(C)C1CCC(N)C(OC2C(N)CC(N)C(OC3OCC(C)(O)C(NC)C3O)C2O)O1 (stereo not drawn) [Gentamicin, gentamicin]
Male Sprague-Dawley rats [1]
  ACE activity: 5.1 ± 0.4 nmol/mL/min
Male Sprague-Dawley rats [2]; FIG. 3, after 8 days of treatment
  Tubular necrosis (PAS histology of renal cortex): extensive and marked tubular necrosis
Male Sprague-Dawley rats [2]; FIG. 4, in situ hybridization, aminoguanidine group also received gentamicin
  Tubular expression of glutathione peroxidase-3: significantly reduced
Male Sprague-Dawley rats [2]; tubular nuclei, propidium iodide, aminoguanidine group also received gentamicin
  Fragmented and condensed nuclei (apoptotic cells) per field: 12±2 per field
Male Sprague-Dawley rats [3]; FIG. 7, aminoguanidine group also received gentamicin
  Staining for CML-AGE in kidney: substantially increased
Male Sprague-Dawley rats [3]; FIG. 8
  Serum AOPPs: elevated to approximately the same extent
Male Sprague-Dawley rats [3]; FIG. 8, compared to sham animals or those receiving aminoguanidine
  Serum MDA-linked fluorescence: elevated
Male Sprague-Dawley rats [3]; after 8 days, aminoguanidine group also received gentamicin
  Circulating levels of LMW-AGEs: elevated to over twice the level seen in untreated animals
Male Sprague-Dawley rats [3]; arbitrary units, untreated 1.0±0.3, p=NS
  Cortical AGE-fluorescence: 1.2±0.3
[4]
  Patients showing signs of nephrotoxicity: up to 50%
Male Sprague-Dawley rats [5]
  Urine NOx: 4.1 ± 0.4 µmol/mg
[6]; in the absence of aminoguanidine
  MIC for gentamicin: 0.2 µg/mL
[6]; in the presence of aminoguanidine at 10 μg/ml
  MIC for gentamicin: 0.3 µg/mL
[6]; in the presence of aminoguanidine at 100 μg/ml
  MIC for gentamicin: 0.2 µg/mL
[6]; in the presence of aminoguanidine at 1 mg/ml
  MIC for gentamicin: 0.5 µg/mL
Male Sprague-Dawley rats [7]; FIG. 2, aminoguanidine group also received gentamicin
  Normalised kidney weight: significantly higher
Male Sprague-Dawley rats [7]; after 8 days gentamicin, aminoguanidine group also received gentamicin
  Renal blood flow as estimated by the clearance of endogenous hippurate: 8.1 ± 1.1 mL/min
Male Sprague-Dawley rats [7]; following 8-days of treatment, gentamicin 50 mg/kg/d s.c., Mean ± SEM
  Urine Volume: 29 ± 6 mL/day
Male Sprague-Dawley rats [7]; [11]
  FeCa: 6 ± 3%
  FeK: 70 ± 20 %
  FeMg: 21 ± 5 %
  Urine ALT: 10.5 ± 4.6 U/ml
  Urine AP: 119 ± 29 U/ml
  Urine AST: 147 ± 62 U/ml
  Urine LDH: 489 ± 100 U/ml
Male Sprague-Dawley rats [7]; following 8-days of treatment, Mean ± SEM, none in table head
  Creatinine clearance: 1.3 ± 0.3 mL/min
Male Sprague-Dawley rats [7]; gentamicin alone, 8 days
  Fall in creatinine clearance compared to untreated animals: greater than 50%
Male Sprague-Dawley rats [7]; marker of renal injury, after treatment
  Serum LDH: 380 ± 76 IU/ml
Male Sprague-Dawley rats [7]; [12]
  Creatinine: 122 ± 55 µM
  Urea: 20.1 ± 5.6 mM

## N=C(N)NN [aminoguanidine]
[8]; FIG. 5, after 8 days, aminoguanidine co-administered with gentamicin, vs gentamicin alone, p<0.001
  Reduction of gentamicin content of the renal cortex: approximately two thirds
[8]; effect of co-administration of aminoguanidine
  Serum gentamicin levels at day 2 and day 5: unaffected
Male Sprague-Dawley rats [2]; rat, in vivo
  Fragmented and condensed nuclei (apoptotic cells) per field: 1-2 per field
  Tubular expression of glutathione peroxidase-3: not significantly changed
Male Sprague-Dawley rats [3]; rat, in vivo
  Staining for CML-AGE in kidney: able to reduce staining for CML-AGE
[9]
  Half life: 4 h
Male Sprague-Dawley rats [10]
  Urinary potassium excretion: reduced
Male Sprague-Dawley rats [7]; rat, in vivo
  Normalised kidney weight: reduced the renal weight
  Renal blood flow as estimated by the clearance of endogenous hippurate: 12.1 ± 1.1 mL/min
